How the values were obtained:
[1] = system: mouse model of stabilized unilateral tibial fracture; test: Static weight bearing (incapacitance meter) after tibial fracture; assay type: in vivo; details: for ipsilateral weight bearing vs pre-fracture baseline: adenosine-loaded hydrogel at fracture site
Protocol: (§1) The aim of the experiments described herein was to examine the effectiveness of local delivery of adenosine in tibial bone injury to concurrently attenuate fracture/post-surgical pain while promoting healing. All animal work was performed in compliance with the National Institutes of Health (NIH) and institutional guidelines, and the fracture surgery and biomaterial implantation protocols approved by the Institutional Animal Care and Use Committee at Duke University (Protocol Registry Number A151-20-07) were followed. C57BL/6J mice were used to study fracture nociception and the effect of local delivery of adenosine to mitigate pain and promote bone regeneration. Lepr-cre; tdTomato reporter mice were used for tracing of LepR(+) lineage cells after fracture. To determine the effect of adenosine on pain and healing, fracture surgeries were performed and treated immediately with PEGDA-6ACA-PBA macroporous hydrogels loaded with adenosine as treatment group or without adenosine as control group (Zeng Y, et al. (2020) Adv Mater. 32:e1906022). Behavioral tests for pain and limb function were assessed by weight bearing and open field locomotion. A priori power analysis was used to estimate the sample size requiring a statistical power (1−β) of 80% at the significance level of α=5%. On the basis of the power calculation, the indicated number was 8 animals per group for fracture pain and 4 animals per group for fracture healing. Ten animals per group were used to study the effect of adenosine on fracture pain, and 5 animals per group were used to examine the effect of adenosine on fracture healing. The exclusion criteria for experiments were animals that died due to the surgical procedures or shift of the intramedullary pin identified after experimental endpoint post-mortem. No randomization was used and researchers were not blinded. Measurement of adenosine in the circulation was performed by using an adenosine assay. The in vitro functional activity of DRG neurons was assessed by calcium and membrane potential imaging and the expression of proteins were assessed by histology or immunofluorescence imaging, and gene expression by RT-qPCR. Fracture healing was analyzed by microCT and histology. The study design and timeline of animal procedures (pin placement, surgery, therapeutic intervention with and without adenosine, and behavioral tests) are illustrated in FIG. 10A (weight bearing) and FIG. 10A (open field locomotion).
(§2) In all experiments, 12-week-old to 16-week-old C57BL/6J male mice (Jackson Laboratory, Bar Harbor, ME) and Lepr-cre; tdTomato reporter mice were used. The average mouse weight was 25 grams and mice were housed in groups of four to five, and kept on a 12-hr light-dark cycle with lights off at 1800 hr. All animals had ad libitum access to chow (PMI LabDiet 5001) and water. Fracture surgeries were performed as previously described (Zeng Y, et al. (2020) Adv Mater. 32:e1906022). Animals were anesthetized by isoflurane and injected with 1 mg/kg buprenorphine SR-LAB (ZooPharm, Laramie, WY). Each mouse was then placed in a supine position with the right tibia disinfected. After skin incision and reflection, proximal to the right knee, a 0.7-mm pin was inserted from the tibial plateau through the medullary cavity to stabilize the tibia, and a cut was made at the tibial midshaft to induce a transverse fracture. Bupivacaine (0.5%; Hospira, Lake Forest, IL) at ˜1 mg/kg body weight was applied at the surgical site following wound closure using 2 reflex clips (5 mm). For animals treated with control and adenosine-loaded macroporous hydrogels, macroporous hydrogels measuring approximately 5 mm (length)×3 mm (width)×1 mm (thick) containing either 1.05±0.1 mg adenosine (ADO) or no adenosine (CTL) were implanted adjacent to the fractures immediately. […] The animals were treated with the macroporous hydrogels with or without adenosine immediately following the fracture. […]

[2] = Measurement of adenosine in plasma of fractured mice; assay type: in vivo, mouse; details: 3 days after implantation of adenosine-loaded biomaterial following tibial fracture
Protocol: Peripheral blood was collected and immediately incubated in ice cold stop solution at a 1:2 ratio (blood to stop solution) to inhibit degradation of adenosine (Feldman M D, et al. (1992) Clin Chem. 38:256-262). Stop solution comprised of 0.2 mM dipyridamole (Tocris, Minneapolis, MN), 5 μM erythro-9 (2-hydroxy-3-nonyl)-adenine (EHNA; Tocris), 62 μM Adenosine 5′-(α,β-methylene) diphosphate sodium salt (APCP), 5 mM EDTA, and 25 IU/mL heparin (Tocris) in PBS. The blood was centrifuged at 2000 rcf for 10 min at 4° C. to separate cells from plasma. Adenosine assay kit (Cell Biolabs, San Diego, CA, Cat #MET-5090) was used to measure adenosine levels from plasma according to manufacturer's protocol. Briefly, a reaction mixture comprised of fluorometric Probe, HRP, adenosine deaminase, purine nucleoside phosphorylase, xanthine oxidase, assay buffer and a control mix comprised of fluorometric Probe, HRP, purine nucleoside phosphorylase, xanthine oxidase, assay buffer were made and mixed with 50 μL of plasma for 15 min. at room temp. The relative fluorescence unit (RFU) was measured using a microplate reader with excitation at 570 nm and emission at 590 nm. Adenosine concentration was determined using a standard curve of known concentrations and subtracted for the background by using the values in control mix.

[3] = system: mouse model of stabilized unilateral tibial fracture; test: Open field activity after tibial fracture; assay type: in vivo
Protocol: as §1, §2

[4] = 7 dpf, sum over 60 min, ratio post-/pre-fracture

For Nc1ncnc2c1ncn2[C@@H]1O[C@H](CO)[C@@H](O)[C@H]1O [adenosine], the “degree of decrease in weight bearing vs untreated group” value ([1]; 2 dpf and 4 dpf) was “less”, the “percent change in weight bearing from baseline” value ([1]; 2 dpf and 4 dpf) was “significant decreases” and the “percent change in weight bearing from baseline” value ([1]; 8 dpf) was “returned to baseline”. The “ipsilateral weight bearing vs pre-fracture baseline” value ([1]; 2 days post-fracture) was “significantly decreased”, the “ipsilateral weight bearing vs pre-fracture baseline” value ([1]; by 8 days post-fracture) was “returned back to the baseline” and the “effect size of treatment on weight bearing” value ([1]; each timepoint, effect size r) was “large effect size”. For the same compound, the “ipsilateral hindlimb weight bearing vs control-treated limbs” value ([1]; hydrogel with 1.05±0.1 mg adenosine implanted next to fracture, all post-fracture timepoints (2, 4, 8 dpf)) was “significantly higher”, the “adenosine level in peripheral blood vs control biomaterials” value [2] was “No significant increase” and the “effect size of treatment on open field parameters” value ([3]; 7 dpf, effect size r and Cohen's d, all measured parameters) was “large effect sizes”. The “ambulatory activity counts vs control” value [3, 4] was “significantly higher”, the “ambulatory time vs control” value [3, 4] was “significantly higher” and the “rest time vs control” value [3, 4] was “lower”. For the same compound, the “total distance vs control” value [3, 4] was “significantly higher”, the “vertical activity counts vs control” value [3, 4] was “significantly higher” and the “vertical movement time vs control” value [3, 4] was “significantly higher”. For the same compound, the “open field activity vs control at 5-min intervals (vertical, ambulatory, distance; lower rest time)” value ([3]; 7 days post-fracture, most of the 5-min intervals, ratio post-/pre-fracture) was “higher levels of activity”.
